Results from patent US20250221983A1, “PHARMACEUTICAL COMPOSITION FOR PREVENTING RELAPSE INTO CANNABIS USE AND APPLICATION THEREOF” (Shenzhen ScienCare Pharmaceutical Co., Ltd, priority 2023, published 2025).
Entries after “also recorded” stand apart in the source; their conditions may differ.

How the values were obtained:
Assay type in all cases: in vivo, LE rats
[1] = tested on: LE rat self-administration model; assay: Environmental cue-induced relapse test in WIN55,212-2 self-administration model; conditions: rimonabant 2 mg/kg, implants 4 tablets/rat
Protocol: (§1) In each self-administration process, the effective lever was activated, and the injection system performed automatic administration ([…]). Each injection was about 0.1 mL, with a duration of 4 s-6 s. Meanwhile, each injection would be accompanied by the effective lever light turning on for 10 s and the room light turning off for 20 s. […] Data of activating the ineffective lever was recorded, but no drug injection was given. During the training, the computer automatically recorded the number of effective and ineffective lever presses and the number of injections. During the training, food was restricted to 12 g.

[2] = tested on: LE rat self-administration model; assay: Drug (WIN55,212-2) and environmental cue-induced relapse test in self-administration model; conditions: rimonabant 2 mg/kg, implants 4 tablets/rat
Protocol: The rats received 2 h of environmental regression again. During the regression, only the spatial environment during the self-administration training was presented, without other clues such as lights and pump sounds as well as drug injections. The computer automatically recorded the number of behavioral responses of rats, and the regression was continued until reaching the criteria.
In the rimonabant group, rats were administered the rimonabant injection (2 mg/kg, ip) 15 min before the test through intraperitoneal injection at a dose of 2 mg per kilogram of body weight. In the control group, rats were administered normal saline 15 min before the test. In the implant administration groups, there would be no administration. All rats were administered cannabis (WIN55,212-2 injection 0.3 mg/kg, ip) through intraperitoneal injection at a dose of […] of body weight, and then a 2-h drug and environmental cue-induced relapse test was immediately performed. The cues were consistent with those of self-administration training, including levers and syringe pump sound, but no drug in the syringe pump. The number of injections and effective lever pressing data were recorded by the computer.
In the control group, rats were administered normal saline 15 min before the test, and in the implant groups, there would be no administration. All rats were administered WIN55,212-2 (0.3 mg/kg, i.p) through intraperitoneal administration, and then a 2-h drug and environmental cue-induced relapse test was immediately performed. The cues were consistent with those of self-administration training, including levers and syringe pump sound, but no drug in the syringe pump. The number of injections and effective lever pressing data were recorded by the computer.

[3] = tested on: LE rat self-administration; assay: Addiction formation: WIN55,212-2 self-administration training
Protocol: as §1
In the control group and rimonabant group, sham operations were performed. After 3 days of postoperative care, addiction formation training was started on the fourth day.
In the control group and rimonabant group, rats were administered the corresponding compound 15 min before the daily training. The rimonabant was at a dosage of 2 mg/kg, i.p. In the control group, rats were administered normal saline, and in the implant administration groups, there would be no administration. The training operation was the same as the self-administration training in example 1. During the training, the computer automatically recorded the number of effective and ineffective lever presses and the number of injections. During the training, food was restricted to 12 g.

[4] = tested on: LE rat self-administration; assay: Regression of drug-seeking behavior after self-administration training
Protocol: After the establishment of the self-administration model, the rats received 2 h of environmental regression for each round of regression training. During the regression, only the spatial environment and lever during the training were presented, without other clues such as lights and pump sounds as well as drug injections. The computer automatically recorded the number of behavioral responses of rats, and the rats reached the regression criteria (i.e., the total number of effective lever presses decreased to 20% of the total number of effective lever presses on the first day of the regression training or less than 10 times).

[5] = 2 h environmental cue-induced relapse test, n = 10
[6] = last regression before cue test, n = 10
[7] = 2 h test after WIN55,212-2 ip, n = 10
[8] = re-regression before cue + drug test, n = 10
[9] = female LE rats, rimonabant 2 mg/kg, implants 4 tablets/rat, n = 10

## Cc1c(C(=O)NN2CCCCC2)nn(-c2ccc(Cl)cc2Cl)c1-c1ccc(Cl)cc1 [Rimonabant]
[1]; [5]
  Number of effective lever presses, Cue priming: 57.70 ± 10.27
  Number of ineffective lever presses, Cue priming: 12.10 ± 3.33
[1]; [6]
  Number of effective lever presses, Last-Ext: 6.80 ± 1.62
  Number of ineffective lever presses, Last-Ext: 3.10 ± 0.86
[1]
  cue-induced relapse behavior (number of effective lever presses compared with the control group), in words: no significant inhibition effect; also recorded: not significant
[2]; [7]
  Number of effective lever presses, Cue + drug priming: 63.50 ± 16.15
  Number of ineffective lever presses, Cue + drug priming: 8.10 ± 2.08
[2]; [8]
  Number of effective lever presses, Re-Ext: 10.30 ± 2.72
  Number of ineffective lever presses, Re-Ext: 5.20 ± 3.0
[2]
  cue and drug-induced relapse behavior (number of effective lever presses compared with the control group), in words: no significant inhibition effect; also recorded: not significant
[3]; compared with the control group
  inhibition of the increase in the number of effective lever presses caused by addiction formation of win55,212-2, in words: significantly inhibited; also recorded: significant inhibition effect
[3]; [9]
  Addiction formation (26 days): Number of effective lever presses: 45.70 ± 8.21
  Addiction formation (26 days): Number of ineffective lever presses: 9.49 ± 1.05
[4]; compared with other groups
  effect on the regression process of cannabis addiction, in words: may accelerate the regression process and reduce the regression days
[4]; [9]
  Regression (13 sessions): First stabilization: 7 days
  Regression (13 sessions): Number of effective lever presses: 9.27 ± 2.21
